In PMC5635000, “Structural and mechanistic characterization of an archaeal-like chaperonin from a thermophilic bacterium” (Nature Communications, 2017):

Tests used:
[1] = molecular target: T1, Ch-CPN (Carboxydothermus hydrogenoformans, UniProt Q3AF10); experiment: X-ray crystal structure, […] Å; assay type: binding; details: closed conformation; nucleotide site of equatorial domain; Mg2+; 3 mM AMPPNP, pH 7.5
T1 construct: gene CHY_0413; full-length wild type, 521 residues; recombinant from E. coli BL21(DE3), no tag mentioned; homo-hexadecamer of two octameric rings; residues 10-502 (5X9V) and 9-502 (5X9U) modelled
T1 sequence (Q3AF10 1-521): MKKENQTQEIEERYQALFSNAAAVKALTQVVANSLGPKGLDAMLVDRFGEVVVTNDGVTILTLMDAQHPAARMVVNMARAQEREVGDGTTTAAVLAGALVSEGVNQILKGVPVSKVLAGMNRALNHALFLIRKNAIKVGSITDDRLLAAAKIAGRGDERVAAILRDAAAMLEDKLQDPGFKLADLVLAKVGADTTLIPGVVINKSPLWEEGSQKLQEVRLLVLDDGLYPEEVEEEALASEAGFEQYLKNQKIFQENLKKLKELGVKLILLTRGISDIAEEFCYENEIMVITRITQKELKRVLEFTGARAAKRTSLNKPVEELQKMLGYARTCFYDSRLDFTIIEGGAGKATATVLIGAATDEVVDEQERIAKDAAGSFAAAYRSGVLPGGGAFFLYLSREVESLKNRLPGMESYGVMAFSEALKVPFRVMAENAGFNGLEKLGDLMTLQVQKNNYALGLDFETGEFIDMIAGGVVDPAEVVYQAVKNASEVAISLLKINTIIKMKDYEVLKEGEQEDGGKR

[2] = molecular target: Ch-CPN L439A pivot joint mutant (Carboxydothermus hydrogenoformans) (UniProt Q3AF10); experiment: not stated; L439A subunits purified as hexadecameric chaperonins (Supplementary Fig. 12b)
[3] = molecular target: Group III chaperonin from Carboxydothermus hydrogenoformans (Ch-CPN), wild type (Carboxydothermus hydrogenoformans) (UniProt Q3AF10); experiment: crystal structure; Ch-CPN with 3 mM AMPPNP, closed conformation; batch crystallisation at 22 °C, 20 mM MgCl2, 100 mM HEPES:NaOH pH 7.5; 3.0 Å
[4] = molecular target: T1, Ch-CPN; experiment: X-ray crystal structure, […] Å; assay type: binding; details: open conformation; nucleotide site of equatorial domain; no Mg2+ seen; 3 mM ADP, pH 7.0

Molecule: Nc1ncnc2c1ncn2[C@@H]1O[C@H](COP(=O)(O)OP(=O)(O)NP(=O)(O)O)[C@@H](O)[C@H]1O [AMPPNP]
- X-ray crystal structure, 3.0 Å [1]: crystal structure of Ch-CPN in complex with AMPPNP, an ATP analog, revealed its closed conformation

Molecule: Ch-CPN L439A pivot joint mutant (from UniProt Q3AF10 1-521) (natural protein)
- stoichiometry N [2]: 16

Molecule: Group III chaperonin from Carboxydothermus hydrogenoformans (Ch-CPN), wild type (from UniProt Q3AF10 1-521) (natural protein)
- stoichiometry N [3]: 16

Molecule: Nc1ncnc2c1ncn2[C@@H]1O[C@H](COP(=O)(O)OP(=O)(O)O)[C@@H](O)[C@H]1O [ADP]
- X-ray crystal structure, 4.0 Å [4]: The crystal structure of the ADP-bound Ch-CPN shows its fully open conformation
